Each structure is given as a SMILES string. Counter-ions that a name gives are not always drawn. Bounds are passed on as bounds.

What is called Ki is a dissociation constant, usually derived from enzyme kinetics or from competition with a known ligand.

Sequence of human H4 receptor (Q9H3N8 whole entry): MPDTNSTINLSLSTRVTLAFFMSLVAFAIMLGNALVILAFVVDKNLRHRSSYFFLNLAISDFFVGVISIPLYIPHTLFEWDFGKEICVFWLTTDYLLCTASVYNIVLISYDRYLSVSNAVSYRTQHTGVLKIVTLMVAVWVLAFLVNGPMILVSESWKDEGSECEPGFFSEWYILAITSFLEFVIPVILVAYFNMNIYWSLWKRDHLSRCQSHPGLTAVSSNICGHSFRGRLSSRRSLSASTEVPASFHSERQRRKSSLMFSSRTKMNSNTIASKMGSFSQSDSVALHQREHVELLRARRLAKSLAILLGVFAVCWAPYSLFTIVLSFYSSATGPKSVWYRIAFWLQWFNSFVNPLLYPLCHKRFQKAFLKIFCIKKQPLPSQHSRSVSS

One assay addresses human H4 receptor (Homo sapiens (Human), UniProt Q9H3N8). Briefly: Binding assay on recombinant human histamine H4 receptor ([3H]histamine competition, SK-N-MC cell membranes). The settings on record: Cell Harvester Ki (nM). The method in brief:
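Membranes from SK-N-MC cells stably or transiently transfected with human H4 receptor, prepared by homogenization and 30,000 g centrifugation in Tris/EDTA. Bound [3H]histamine separated by rapid filtration on PEI-treated GF/C filters, washed with ice-cold Tris/EDTA, counted by scintillation. '>' values denote highest concentration tested.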
For `CCCCNc1cc(N2CCNCC2)ccn1` [Example 36, N-Butyl-4-piperazin-1-ylpyridin-2-amine], the Ki was 104 nM.

Still in this assay, the particulars now being: membranes harvested with 96 well Brandel system; [3H]histamine 10 nM; average of results; read-out: Brandel Ki.
Take `CC(C)CNc1nccc(N2CC(N)C2)n1` [Example 89, 4-(3-Aminoazetidin-1-yl)-N-(2-methylpropyl)pyrimidin-2-amine]: the Ki came out at 26.2 nM.

Take `N[C@@H]1CCN(c2ccnc(NC3CC3)n2)C1` [Example 55, 4-[(3R)-3-Aminopyrrolidin-1-yl]-N-cyclopropylpyrimidin-2-amine]: the Ki is 138 nM.

`CCCCNc1cc(N2CC[C@@H](NC)C2)cnn1` [Example 100, N-Butyl-5-[(3R)-3-(methylamino)pyrrolidin-1-yl]pyridazin-3-amine]: the Ki amounted to 31 nM.

Staying with this assay, now noted: membranes harvested with cell harvester; [3H]histamine 10 nM; average of results; read-out: Cell Harvester Ki.
Regarding `CC(C)(C)Nc1cc(N2C[C@H]3CCN[C@H]3C2)ccn1` [Example 288, N-tert-Butyl-4-[(3aR,6aR)-hexahydropyrrolo[3,4-b]pyrrol-5(1H)-yl]pyridin-2-amine], the Ki amounted to 39.5 nM.

For the molecule `COCCNc1cc(N2CC[C@@H](N)C2)cnn1` [Example 298, 5-[(3R)-3-Aminopyrrolidin-1-yl]-N-(2-methoxyethyl)pyridazin-3-amine], the Ki is more than 10000 nM.

For `CCCCNc1cc(N2C[C@H]3CCN[C@H]3C2)cnn1` [Example 310, N-Butyl-5-[(3aR,6aR)-hexahydropyrrolo[3,4-b]pyrrol-5(1H)-yl]pyridazin-3-amine], the Ki is 621 nM. As to `c1ccc(CNc2cc(N3CCNCC3)cnn2)cc1` [Example 348, N-Benzyl-5-piperazin-1-ylpyridazin-3-amine], the Ki is more than 10000 nM. Still for that read-out and setting: in the case of `N[C@H]1CCN(c2ccnc(NC3CCCC3)c2)C1` [Example 268, 4-[(3S)-3-Aminopyrrolidin-1-yl]-N-cyclopentylpyridin-2-amine] it was 247 nM; in that of `COCCNc1cc(N2CC[C@H](N)C2)ccn1` [Example 264, 4-[(3S)-3-Aminopyrrolidin-1-yl]-N-(2-methoxyethyl)pyridin-2-amine], more than 10000 nM. As to `CNC1CN(c2ccnc(NC3C[C@H]4C[C@@H](C3C)C4(C)C)c2)C1` (stereo partly drawn) [Example 284, 4-[3-(Methylamino)azetidin-1-yl]-N-[(1S,5R)-2,6,6-trimethylbicyclo[3.1.1]hept-3-yl]pyridin-2-amine], the Ki was 42.3 nM. With `CC(C)(O)CNc1nccc(N2CCNCC2)n1` [Example 177, 2-Methyl-1-[(4-piperazin-1-ylpyrimidin-2-yl)amino]propan-2-ol], the Ki is 523 nM. The same measure, in the same setting: in the case of `CC(C)CNc1nccc(N2CC(N)C2)n1` [Example 89, 4-(3-Aminoazetidin-1-yl)-N-(2-methylpropyl)pyrimidin-2-amine] it was 69.3 nM.

As to `c1nnc(NCC2CCCC2)cc1N1C[C@H]2CCN[C@H]2C1` [Example 360, N-(Cyclopentylmethyl)-5-[(3aR,6aR)-hexahydropyrrolo[3,4-b]pyrrol-5(1H)-yl]pyridazin-3-amine], the inhibition constant (Ki) is 1170 nM. The same measure, in the same setting: in the case of `CN[C@@H]1CCN(c2ccnc(NCCc3ccccc3)n2)C1` [Example 183, 4-[(3R)-3-(Methylamino)pyrrolidin-1-yl]-N-(2-phenylethyl)pyrimidin-2-amine] it was 15.6 nM; in that of `CN[C@H]1CCN(c2ccnc(NCc3ccc(F)cc3)c2)C1` [Example 246, N-(4-Fluorobenzyl)-4-[(3S)-3-(methylamino)pyrrolidin-1-yl]pyridin-2-amine], 395 nM; in that of `NC1CN(c2ccnc(NC[C@H]3CCCO3)n2)C1` [Example 94, 4-(3-Aminoazetidin-1-yl)-N-[(2R)-tetrahydrofuran-2-ylmethyl]pyrimidin-2-amine], 868 nM. The same measure, in the same setting: in the case of `CNC1CN(c2ccnc(NCCOC)n2)C1` [Example 182, N-(2-Methoxyethyl)-4-[3-(methylamino)azetidin-1-yl]pyrimidin-2-amine] it was 45.4 nM.

Turning to `N[C@H]1CCN(c2ccnc(NCc3ccccn3)n2)C1` [Example 118, 4-[(3S)-3-Aminopyrrolidin-1-yl]-N-(pyridin-2-ylmethyl)pyrimidin-2-amine], the Ki was more than 10000 nM.

Take `CC(C)(O)CNc1nccc(N2CC[C@H](N)C2)n1` [Example 110, 1-({4-[(3S)-3-Aminopyrrolidin-1-yl]pyrimidin-2-yl}amino)-2-methylpropan-2-ol]: the Ki turned out to be 837 nM.

As for `c1ccc(CNc2cc(N3CCNCC3)ccn2)cc1` [Example 18, N-Benzyl-4-piperazin-1-ylpyridin-2-amine dihydrochloride], the inhibition constant (Ki) was 527 nM.

As to `c1cc(N2C[C@H]3CCN[C@H]3C2)nc(NCC2CCCCC2)n1` [Example 107, N-(Cyclohexylmethyl)-4-[(3aR,6aR)-hexahydropyrrolo[3,4-b]pyrrol-5(1H)-yl]pyrimidin-2-amine], the Ki is 69.9 nM.

As for `CN1CCN(c2ccnc(NCC3CCCC3)c2)CC1` [Example 236, N-(Cyclopentylmethyl)-4-(4-methylpiperazin-1-yl)pyridin-2-amine], the Ki is 47.4 nM. Still for that read-out and setting: in the case of `CN[C@@H]1CCN(c2cnnc(NCC3CC4CCC3C4)c2)C1` (stereo partly drawn) [Example 375, N-(Bicyclo[2.2.1]hept-2-ylmethyl)-5-[(3R)-3-(methylamino)pyrrolidin-1-yl]pyridazin-3-amine] it was 66.8 nM; in that of `CN[C@H]1CCN(c2ccnc(NCc3ccccn3)n2)C1` [Example 200, 4-[(3S)-3-(Methylamino)pyrrolidin-1-yl]-N-(pyridin-2-ylmethyl)pyrimidin-2-amine], 860 nM; in that of `CN1CCN(c2cnnc(NC3CC4CCC3C4)c2)CC1` (stereo not drawn) [Example 406, N-Bicyclo[2.2.1]hept-2-yl-5-(4-methylpiperazin-1-yl)pyridazin-3-amine], 178 nM. Still for that read-out and setting: in the case of `CCCCNc1cc(N2CC[C@H](NC)C2)ccn1` [Example 243] it was 167 nM. On the same count and under the same terms, next, `CC(C)(CO)CNc1cc(N2CCNCC2)cnn1` [Example 366, 2,2-Dimethyl-3-[(5-piperazin-1-ylpyridazin-3-yl)amino]propan-1-ol]: more than 10000 nM; `c1cc(N2C[C@H]3CCN[C@H]3C2)cc(NC2C3CC4CC(C3)CC2C4)n1` (stereo partly drawn) [Example 266, Adamantan-2-yl-[4-(3aR,6aR)-(hexahydro-pyrrolo[3,4-b]pyrrol-5-yl)pyridin-2-yl]-amine]: 14.5 nM. Regarding `NC1CN(c2cnnc(NCC3CCCC3)c2)C1` [Example 358, 5-(3-Aminoazetidin-1yl)-N-(cyclopentylmethyl)pyridazin-3-amine], the Ki was more than 10000 nM. For `c1nnc(NC2CCCC2)cc1N1C[C@H]2CCN[C@H]2C1` [Example 345, N-Cyclopentyl-5-[(3aR,6aR)-hexahydropyrrolo[3,4-b]pyrrol-5(1H)-yl]pyridazin-3-amine], the Ki turned out to be 1320 nM. The same measure, in the same setting: in the case of `CC1(C)[C@H]2CC[C@H](CNc3nccc(N4C[C@H]5CCN[C@H]5C4)n3)[C@@H]1C2` [Example 104, N-{[(1S,2S,5S)-6,6-Dimethylbicyclo[3.1.1]hept-2-yl]methyl}-4-[(3aR,6aR)-hexahydropyrrolo[3,4-b]pyrrol-5(1H)-yl]pyrimidin-2amine] it was 1050 nM; in that of `OCCCNc1cc(N2CCNCC2)cnn1` [Example 314, 3-[(5-Piperazin-1-ylpyridazin-3-yl)amino]propan-1-ol], more than 10000 nM. Turning to `CC(C)(O)CNc1nccc(N2CC[C@@H](N)C2)n1` [Example 27, 1-({4-[(3R)-3-Aminopyrrolidin-1-yl]pyrimidin-2-yl}amino)-2-methylpropan-2-ol], the Ki turned out to be 67.7 nM. For `CN[C@@H]1CCN(c2ccnc(NCc3ccc(F)cc3)n2)C1` [Example 79, (4-Fluoro-benzyl)-[4-(3R)-(3-methylamino-pyrrolidin-1-yl)-pyrimidin-2-yl]amine], the Ki is 11.6 nM.

For `CNC1CN(c2cnnc(NCc3ccccc3)c2)C1` [Example 330, N-Benzyl-5-[3-(methylamino)azetidin-1-yl]pyridazin-3-amine], the Ki was found to be 2590 nM. For the molecule `CN1CCN(c2ccnc(NC3CC3)n2)CC1` [Example 56, N-Cyclopropyl-4-(4-methylpiperazin-1-yl)pyrimidin-2-amine], the Ki amounted to 568 nM. The same measure, in the same setting: in the case of `N[C@@H]1CCN(c2ccnc(NC3CC3)n2)C1` [Example 55, 4-[(3R)-3-Aminopyrrolidin-1-yl]-N-cyclopropylpyrimidin-2-amine] it was 102 nM; in that of `CN[C@@H]1CCN(c2ccnc(NCc3ccccc3)c2)C1` [Example 11, N-Benzyl-4-[(3R)-3-(methylamino)pyrrolidin-1-yl]pyridin-2-amine], 12.9 nM; in that of `C[C@@H](Nc1nccc(N2C[C@H]3CCN[C@H]3C2)n1)C1CCCCC1` [Example 115, N-[(1R)-1-Cyclohexylethyl]-4-[(3aR,6aR)-hexahydropyrrolo[3,4-b]pyrrol-5(1H)-yl]pyrimidin-2-amine], 932 nM. Regarding `CN[C@H]1CCN(c2ccnc(NCCc3ccccc3)c2)C1` [Example 245, 4-[(3S)-3-(Methylamino)pyrrolidin-1-yl]-N-(2-phenylethyl)pyridin-2-amine], the Ki came out at 228 nM. As to `CN[C@@H]1CCN(c2ccnc(NC3CC3)n2)C1` [Example 80, Cyclopropyl-[4-(3R)-(3-methylamino-pyrrolidin-1-yl)-pyrimidin-2-yl]-amine], the Ki turned out to be 23.5 nM. On the same count and under the same terms, in the case of `CC(C)(O)CNc1cc(N2CCNCC2)ccn1` [Example 290, 2-Methyl-1-[(4-piperazin-1-ylpyridin-2-yl)amino]propan-2-ol] it was 1480 nM; in that of `CCCCNc1cc(N2CC[C@@H](NC)C2)cnn1` [Example 100, N-Butyl-5-[(3R)-3-(methylamino)pyrrolidin-1-yl]pyridazin-3-amine], 31 nM; in that of `CSCCNc1nccc(N2CCNCC2)n1` [Example 124, N-[2-(Methylsulfanyl)ethyl]-4-piperazin-1-ylpyrimidin-2-amine], 155 nM. Same read-out and setting: in the case of `OCCCNc1nccc(N2CC3CCN[C@H]3C2)n1` (stereo in doubt) [Example 159, 3-({4-[(3aR,6aR)-Hexahydropyrrolo[3,4-b]pyrrol-5(1H)-yl]pyrimidin-2-yl}amino)propan-1-ol] it was 266 nM; in that of `CNC1CN(c2ccnc(NCCOC)c2)C1` [Example 286, N-(2-Methoxyethyl)-4-[3-(methylamino)azetidin-1-yl]pyridin-2-amine], 88.3 nM.

Staying with this assay, now noted: read-out: Brandel Ki.
For the molecule `CCCCNc1cc(N2CCNCC2)ccn1` [Example 36, N-Butyl-4-piperazin-1-ylpyridin-2-amine], the Ki amounted to 91.3 nM.
